From the supplement of paper PMC10307832

Experiments:
Assay in all cases: relative viability (nuclei count vs DMSO), 5 days (fraction); higher = more cells survive
Alisertib + Foretinib = compound: COc1cc(Nc2ncc3c(n2)-c2ccc(Cl)cc2C(c2c(F)cccc2OC)=NC3)ccc1C(=O)O [Alisertib] + COc1cc2c(Oc3ccc(NC(=O)C4(C(=O)Nc5ccc(F)cc5)CC4)cc3F)ccnc2cc1OCCCN1CCOCC1 [Foretinib] (partner 0.25 µM)
Summary of the method: (§1)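 Lung cancer cell lines were seeded in 1536-well plates and dosed by pin tool the next day, with either a single drug or a fixed anchor-drug dose combined with five library-drug doses (not always all listed) spaced in √10 steps. Five days later, one step fixed the cells and stained their nuclei (final 0.05% Triton X-100, 1% formaldehyde, 1 ug/ml Hoechst), and nuclei were counted on 4× images. Relative viability is the nuclei count in treated wells divided by the count in vehicle wells, and each value is the median of duplicate plates.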

Alisertib + Luminespib = compound: COc1cc(Nc2ncc3c(n2)-c2ccc(Cl)cc2C(c2c(F)cccc2OC)=NC3)ccc1C(=O)O [Alisertib] + CCNC(=O)c1noc(-c2cc(C(C)C)c(O)cc2O)c1-c1ccc(CN2CCOCC2)cc1 [Luminespib] (partner 0.01 µM)
Summary of the method: as §1

Alisertib + Dasatinib = compound: COc1cc(Nc2ncc3c(n2)-c2ccc(Cl)cc2C(c2c(F)cccc2OC)=NC3)ccc1C(=O)O [Alisertib] + Cc1nc(Nc2ncc(C(=O)Nc3c(C)cccc3Cl)s2)cc(N2CCN(CCO)CC2)n1 [Dasatinib] (partner 0.075 µM)
Summary of the method: as §1

Alisertib + Decitabine = compound: COc1cc(Nc2ncc3c(n2)-c2ccc(Cl)cc2C(c2c(F)cccc2OC)=NC3)ccc1C(=O)O [Alisertib] + Nc1ncn([C@H]2C[C@H](O)[C@@H](CO)O2)c(=O)n1 [Decitabine] (partner 2 µM)
Summary of the method: as §1

Row | Cell Line | relative viability (Alisertib + Foretinib; first compound 0.005 µM) | relative viability (Alisertib + Foretinib; first compound 0.01581 µM) | relative viability (Alisertib + Foretinib; first compound 0.05 µM) | relative viability (Alisertib + Foretinib; first compound 0.1581 µM) | relative viability (Alisertib + Foretinib; first compound 0.5 µM) | relative viability (Alisertib + Luminespib; first compound 0.005 µM) | relative viability (Alisertib + Luminespib; first compound 0.01581 µM) | relative viability (Alisertib + Luminespib; first compound 0.05 µM) | relative viability (Alisertib + Luminespib; first compound 0.1581 µM) | relative viability (Alisertib + Luminespib; first compound 0.5 µM) | relative viability (Alisertib + Dasatinib; first compound 0.005 µM) | relative viability (Alisertib + Dasatinib; first compound 0.01581 µM) | relative viability (Alisertib + Dasatinib; first compound 0.05 µM) | relative viability (Alisertib + Dasatinib; first compound 0.1581 µM) | relative viability (Alisertib + Dasatinib; first compound 0.5 µM) | relative viability (Alisertib + Decitabine; first compound 0.005 µM) | relative viability (Alisertib + Decitabine; first compound 0.01581 µM) | relative viability (Alisertib + Decitabine; first compound 0.05 µM) | relative viability (Alisertib + Decitabine; first compound 0.1581 µM) | relative viability (Alisertib + Decitabine; first compound 0.5 µM)
1 | NCI-H358 | 0.608 | 0.485 | 0.181 | 0.111 | 0.0732 | 0.321 | 0.243 | 0.133 | 0.114 | 0.105 | 0.168 | 0.176 | 0.114 | 0.0896 | 0.0837 | 0.222 | 0.186 | 0.121 | 0.086 | 0.098
2 | NCI-H441 | 0.845 | 0.546 | 0.308 | 0.262 | 0.232 | 0.369 | 0.364 | 0.223 | 0.218 | 0.242 | 0.621 | 0.332 | 0.186 | 0.165 | 0.176 | 0.227 | 0.197 | 0.137 | 0.152 | 0.153
3 | NCI-H460 | 0.98 | 0.956 | 0.283 | 0.0899 | 0.0482 | 0.0403 | 0.0274 | 0.0247 | 0.0194 | 0.0287 | 0.455 | 0.485 | 0.198 | 0.036 | 0.0218 | 0.441 | 0.408 | 0.0826 | 0.0385 | 0.0482
4 | NCI-H520 | 1.15 | 0.644 | 0.486 | 0.266 | 0.322 | 0.237 | 0.202 | 0.197 | 0.209 | 0.193 | 0.218 | 0.199 | 0.148 | 0.177 | 0.159 | 0.435 | 0.451 | 0.355 | 0.236 | 0.242
5 | NCI-H596 | 0.87 | 0.804 | 0.762 | 0.175 | 0.395 | 0.839 | 0.977 | 1.05 | 0.505 | 0.412 | 0.593 | 0.688 | 0.626 | 0.53 | 0.342 | 1.07 | 1.01 | 1.01 | 0.708 | 0.505
6 | NCI-H647 | 1.08 | 1.04 | 0.691 | 0.301 | 0.131 | 0.151 | 0.132 | 0.0794 | 0.0983 | 0.0961 | 0.186 | 0.16 | 0.104 | 0.0476 | 0.0381 | 0.286 | 0.256 | 0.137 | 0.129 | 0.0775
7 | NCI-H650 | 0.926 | 0.902 | 0.407 | 0.226 | 0.222 | 0.685 | 0.579 | 0.239 | 0.126 | 0.198 | 0.429 | 0.479 | 0.21 | 0.194 | 0.169 | 0.295 | 0.282 | 0.275 | 0.185 | 0.18
8 | NCI-H661 | 0.995 | 1.04 | 0.813 | 0.423 | 0.369 | 0.94 | 0.875 | 0.611 | 0.377 | 0.296 | 0.57 | 0.675 | 0.416 | 0.258 | 0.297 | 0.459 | 0.501 | 0.37 | 0.312 | 0.293
9 | NCI-H727 | 0.658 | 0.922 | 0.488 | 0.352 | 0.417 | 0.366 | 0.325 | 0.557 | 0.24 | 0.169 | 0.425 | 0.357 | 0.397 | 0.243 | 0.242 | 0.843 | 0.892 | 0.81 | 0.617 | 0.537
10 | NCI-H838 | 1.03 | 0.971 | 0.605 | 0.394 | 0.202 | 0.386 | 0.343 | 0.252 | 0.135 | 0.133 | 0.289 | 0.298 | 0.263 | 0.239 | 0.189 | 0.402 | 0.334 | 0.253 | 0.213 | 0.198
11 | NCI-H1355 | 0.88 | 0.892 | 0.343 | 0.244 | 0.202 | 0.67 | 0.37 | 0.221 | 0.183 | 0.217 | 0.691 | 0.702 | 0.664 | 0.177 | 0.184 | 0.347 | 0.358 | 0.229 | 0.177 | 0.154
12 | NCI-H1395 | 0.895 | 0.916 | 0.696 | 0.561 | 0.38 | 0.78 | 0.561 | 0.566 | 0.342 | 0.343 | 0.384 | 0.376 | 0.451 | 0.329 | 0.296 | 0.649 | 0.618 | 0.505 | 0.471 | 0.393
13 | NCI-H1437 | 1.08 | 0.939 | 0.796 | 0.454 | 0.236 | 1.01 | 0.919 | 0.707 | 0.462 | 0.237 | 0.35 | 0.403 | 0.314 | 0.17 | 0.0967 | 0.5 | 0.519 | 0.439 | 0.27 | 0.209
14 | NCI-H1650 | 1.19 | 0.873 | 0.653 | 0.23 | 0.231 | 0.19 | 0.194 | 0.171 | 0.196 | 0.177 | 0.325 | 0.298 | 0.164 | 0.138 | 0.125 | 0.336 | 0.326 | 0.2 | 0.162 | 0.189
15 | NCI-H1651 | 0.907 | 0.571 | 0.445 | 0.338 | 0.195 | 0.81 | 0.782 | 0.306 | 0.263 | 0.169 | 0.357 | 0.293 | 0.204 | 0.151 | 0.163 | 0.557 | 0.433 | 0.339 | 0.182 | 0.161
16 | NCI-H1666 | 0.841 | 0.82 | 0.597 | 0.415 | 0.403 | 0.879 | 0.801 | 0.639 | 0.471 | 0.379 | 0.693 | 0.695 | 0.527 | 0.336 | 0.323 | 0.785 | 0.63 | 0.615 | 0.537 | 0.441
17 | NCI-H1734 | 0.841 | 0.731 | 0.314 | 0.327 | 0.174 | 0.172 | 0.214 | 0.149 | 0.146 | 0.132 | 0.449 | 0.358 | 0.291 | 0.181 | 0.151 | 0.497 | 0.466 | 0.324 | 0.24 | 0.177
18 | NCI-H1755 | 0.85 | 0.846 | 0.615 | 0.532 | 0.325 | 0.463 | 0.409 | 0.255 | 0.189 | 0.199 | 0.382 | 0.467 | 0.356 | 0.221 | 0.0862 | 0.643 | 0.673 | 0.543 | 0.413 | 0.348
19 | NCI-H1793 | 0.715 | 0.286 | 0.232 | 0.194 | 0.138 | 0.171 | 0.147 | 0.156 | 0.127 | 0.136 | 0.397 | 0.242 | 0.186 | 0.11 | 0.116 | 0.359 | 0.309 | 0.196 | 0.24 | 0.206
20 | NCI-H1915 | 0.998 | 0.907 | 0.431 | 0.463 | 0.236 | 0.684 | 0.452 | 0.151 | 0.148 | 0.185 | 0.297 | 0.299 | 0.295 | 0.148 | 0.14 | 0.257 | 0.249 | 0.197 | 0.198 | 0.176
21 | NCI-H1944 | 0.845 | 0.818 | 0.633 | 0.386 | 0.227 | 0.778 | 0.676 | 0.541 | 0.411 | 0.15 | 0.196 | 0.217 | 0.218 | 0.113 | 0.113 | 0.401 | 0.436 | 0.324 | 0.266 | 0.186
22 | NCI-H1975 | 0.816 | 0.989 | 0.501 | 0.204 | 0.165 | 0.199 | 0.23 | 0.213 | 0.177 | 0.168 | 0.298 | 0.333 | 0.286 | 0.153 | 0.109 | 0.32 | 0.359 | 0.142 | 0.191 | 0.153
23 | NCI-H1993 | 0.772 | 0.849 | 0.525 | 0.484 | 0.557 | 0.891 | 0.791 | 0.558 | 0.456 | 0.492 | 0.538 | 0.644 | 0.474 | 0.386 | 0.433 | 0.356 | 0.561 | 0.539 | 0.383 | 0.356
24 | NCI-H2009 | 1.19 | 1.05 | 0.618 | 0.429 | 0.248 | 0.971 | 0.972 | 0.395 | 0.292 | 0.264 | 0.259 | 0.292 | 0.211 | 0.141 | 0.129 | 0.338 | 0.388 | 0.292 | 0.194 | 0.168
25 | NCI-H2023 | 0.936 | 0.743 | 0.501 | 0.46 | 0.0916 | 0.807 | 0.671 | 0.321 | 0.127 | 0.0912 | 0.561 | 0.492 | 0.35 | 0.167 | 0.0881 | 0.252 | 0.193 | 0.145 | 0.109 | 0.0849
26 | NCI-H2085 | 1.03 | 0.812 | 0.309 | 0.259 | 0.228 | 0.419 | 0.341 | 0.309 | 0.342 | 0.329 | 0.233 | 0.203 | 0.207 | 0.184 | 0.171 | 0.565 | 0.544 | 0.319 | 0.396 | 0.332
